Active and inactive are the calls of the source.
Assays:
[1] = biological target: Alkaline phosphatase, placental type (Homo sapiens, UniProt P05187); assay: human placental alkaline phosphatase inhibition – biochemical, luminescence, confirmation (AID 1512); assay type: functional
[2] = biological target: Dual specificity protein phosphatase 3 (Homo sapiens, UniProt P51452); assay: SAR VHR1 Fluorescent Assay for In Vitro dose response studies Set 2. [Related pubchem assays (depositor defined):AID1654, AID1661, AID1878]; assay type: functional
Chain of Dual specificity protein phosphatase 3 (P51452 whole entry): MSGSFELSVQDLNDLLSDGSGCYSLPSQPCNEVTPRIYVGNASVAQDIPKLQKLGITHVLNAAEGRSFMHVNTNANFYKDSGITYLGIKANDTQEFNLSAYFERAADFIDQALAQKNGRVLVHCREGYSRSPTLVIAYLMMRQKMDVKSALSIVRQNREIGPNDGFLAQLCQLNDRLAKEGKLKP

[3] = biological target: T1, Tyrosine-protein phosphatase non-receptor type 7 (Homo sapiens, UniProt P35236); assay: SAR analysis of chemical inhibitors of HePTP using a Fluorescent assay - Set 2. [Related pubchem assays (depositor defined):AID1059, AID1077, AID1661, AID2085, AID521]; assay type: functional
T1 sequence (P35236 whole entry): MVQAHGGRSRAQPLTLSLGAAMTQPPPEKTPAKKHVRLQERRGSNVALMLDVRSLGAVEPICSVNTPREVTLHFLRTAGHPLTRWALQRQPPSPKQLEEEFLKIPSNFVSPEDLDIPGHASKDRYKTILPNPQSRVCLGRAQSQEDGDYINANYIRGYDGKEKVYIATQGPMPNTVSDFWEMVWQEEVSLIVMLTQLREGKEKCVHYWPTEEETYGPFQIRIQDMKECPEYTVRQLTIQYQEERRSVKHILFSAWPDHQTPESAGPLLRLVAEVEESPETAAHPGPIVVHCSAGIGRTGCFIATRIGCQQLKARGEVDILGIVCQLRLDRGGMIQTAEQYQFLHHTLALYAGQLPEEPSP

[4] = biological target: Intestinal-type alkaline phosphatase (Mus musculus, UniProt P24822); assay: PubChem AID 488785; assay type: functional
Chain of Intestinal-type alkaline phosphatase (Mus musculus, UniProt P24822) (P24822 whole entry): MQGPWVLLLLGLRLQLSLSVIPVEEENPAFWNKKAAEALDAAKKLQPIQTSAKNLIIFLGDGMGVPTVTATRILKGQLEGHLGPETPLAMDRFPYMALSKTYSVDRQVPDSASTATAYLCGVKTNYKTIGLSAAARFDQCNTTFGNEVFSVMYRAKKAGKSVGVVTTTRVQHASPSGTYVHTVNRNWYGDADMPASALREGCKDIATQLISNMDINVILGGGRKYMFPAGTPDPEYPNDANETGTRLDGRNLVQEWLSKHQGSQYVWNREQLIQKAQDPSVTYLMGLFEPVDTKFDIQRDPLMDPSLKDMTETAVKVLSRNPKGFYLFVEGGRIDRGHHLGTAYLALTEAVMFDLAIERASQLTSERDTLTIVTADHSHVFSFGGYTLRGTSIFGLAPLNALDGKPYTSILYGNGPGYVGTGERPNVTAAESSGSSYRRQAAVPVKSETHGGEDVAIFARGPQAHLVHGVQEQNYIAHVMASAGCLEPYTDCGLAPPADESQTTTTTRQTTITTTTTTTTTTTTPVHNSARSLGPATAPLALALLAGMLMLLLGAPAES

[5] = biological target: Intestinal-type alkaline phosphatase (Homo sapiens, UniProt P09923); assay: activation of human intestinal alkaline phosphatase – biochemical, dose response (AID 488873); assay type: functional
Chain of Intestinal-type alkaline phosphatase (Homo sapiens, UniProt P09923) (P09923 whole entry): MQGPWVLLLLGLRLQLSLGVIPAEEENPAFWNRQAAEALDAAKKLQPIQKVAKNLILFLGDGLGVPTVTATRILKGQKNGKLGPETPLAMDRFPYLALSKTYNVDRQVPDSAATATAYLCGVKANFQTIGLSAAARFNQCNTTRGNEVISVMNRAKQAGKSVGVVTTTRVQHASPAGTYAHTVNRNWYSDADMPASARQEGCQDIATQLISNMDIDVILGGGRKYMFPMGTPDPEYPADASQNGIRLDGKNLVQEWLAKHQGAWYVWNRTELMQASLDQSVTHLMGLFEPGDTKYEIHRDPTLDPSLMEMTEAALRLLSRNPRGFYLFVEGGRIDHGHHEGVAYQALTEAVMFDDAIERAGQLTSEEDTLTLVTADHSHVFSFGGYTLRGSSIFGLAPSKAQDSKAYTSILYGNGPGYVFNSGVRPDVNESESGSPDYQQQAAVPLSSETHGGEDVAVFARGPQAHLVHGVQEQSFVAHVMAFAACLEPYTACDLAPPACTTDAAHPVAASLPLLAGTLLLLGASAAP

[6] = biological target: T2, Alkaline phosphatase, tissue-nonspecific isozyme (Homo sapiens, UniProt P05186); assay: TNAP enzyme inhibition by screening hits, dose response, selectivity assay for mouse IAP inhibitor project, biochemical, human TNAP, uHTS hits (AID 488906); assay type: functional
T2 sequence (P05186 whole entry): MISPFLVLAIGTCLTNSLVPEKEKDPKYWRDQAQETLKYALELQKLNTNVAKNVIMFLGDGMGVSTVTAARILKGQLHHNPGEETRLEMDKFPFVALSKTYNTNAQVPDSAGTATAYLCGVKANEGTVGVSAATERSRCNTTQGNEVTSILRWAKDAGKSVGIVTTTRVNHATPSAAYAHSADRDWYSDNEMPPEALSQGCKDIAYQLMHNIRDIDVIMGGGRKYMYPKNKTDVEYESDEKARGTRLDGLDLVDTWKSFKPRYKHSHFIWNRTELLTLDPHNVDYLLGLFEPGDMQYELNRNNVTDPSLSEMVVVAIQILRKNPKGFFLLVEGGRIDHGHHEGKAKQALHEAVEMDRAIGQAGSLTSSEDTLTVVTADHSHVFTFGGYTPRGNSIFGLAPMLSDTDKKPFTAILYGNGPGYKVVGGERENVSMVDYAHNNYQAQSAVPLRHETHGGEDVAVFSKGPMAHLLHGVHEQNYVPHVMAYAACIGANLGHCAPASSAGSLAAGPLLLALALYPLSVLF

[7] = biological target: T3, Short transient receptor potential channel 4 (Mus musculus, UniProt Q9QUQ5); assay: potentiation of DAMGO-evoked TRPC4 calcium signal – cell-based, HEK293 TRPC4/mu-opioid, Fluo-4 calcium, EC20 DAMGO, dose response (AID 434941); assay type: functional
T3 sequence (Q9QUQ5 whole entry): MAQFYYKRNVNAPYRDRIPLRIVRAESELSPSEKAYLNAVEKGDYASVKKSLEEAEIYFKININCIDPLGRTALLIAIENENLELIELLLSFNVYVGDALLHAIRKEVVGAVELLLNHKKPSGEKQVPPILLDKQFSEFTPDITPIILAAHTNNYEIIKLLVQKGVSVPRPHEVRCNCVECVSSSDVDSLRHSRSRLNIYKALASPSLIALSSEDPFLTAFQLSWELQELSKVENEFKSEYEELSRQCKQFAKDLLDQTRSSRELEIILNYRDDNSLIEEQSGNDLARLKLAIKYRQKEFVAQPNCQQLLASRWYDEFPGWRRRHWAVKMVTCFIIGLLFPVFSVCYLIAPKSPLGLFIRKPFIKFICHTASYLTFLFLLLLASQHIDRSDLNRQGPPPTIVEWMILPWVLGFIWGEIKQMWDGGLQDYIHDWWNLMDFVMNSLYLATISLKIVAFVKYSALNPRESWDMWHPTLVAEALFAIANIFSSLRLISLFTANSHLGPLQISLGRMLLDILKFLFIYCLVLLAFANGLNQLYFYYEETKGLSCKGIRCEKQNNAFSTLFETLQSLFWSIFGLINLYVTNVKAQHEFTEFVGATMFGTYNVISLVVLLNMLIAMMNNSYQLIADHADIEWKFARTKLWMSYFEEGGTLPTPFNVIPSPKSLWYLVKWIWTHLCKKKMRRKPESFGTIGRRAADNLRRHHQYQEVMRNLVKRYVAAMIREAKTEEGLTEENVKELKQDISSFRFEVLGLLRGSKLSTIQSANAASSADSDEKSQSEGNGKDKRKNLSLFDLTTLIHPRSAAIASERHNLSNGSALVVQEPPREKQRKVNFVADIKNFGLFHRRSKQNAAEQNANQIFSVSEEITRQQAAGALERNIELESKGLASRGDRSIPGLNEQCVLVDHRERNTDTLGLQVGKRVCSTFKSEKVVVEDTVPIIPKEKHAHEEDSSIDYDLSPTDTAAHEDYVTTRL

[8] = biological target: T4, Phosphomannomutase 2 (Homo sapiens, UniProt O15305); assay: Counter screen SAR assay for PMM2 inhibitors via a fluorescence intensity assay. [Related pubchem assays (depositor defined):AID1545, AID1574]
T4 sequence (O15305 whole entry): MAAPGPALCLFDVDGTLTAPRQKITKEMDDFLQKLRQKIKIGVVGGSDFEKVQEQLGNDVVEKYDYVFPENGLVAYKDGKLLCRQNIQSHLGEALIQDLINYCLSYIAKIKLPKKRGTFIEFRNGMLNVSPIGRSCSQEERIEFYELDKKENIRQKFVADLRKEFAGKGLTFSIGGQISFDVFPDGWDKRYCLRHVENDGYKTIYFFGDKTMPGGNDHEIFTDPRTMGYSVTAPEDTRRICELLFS

[9] = biological target: Beta Lactamase (Pseudomonas aeruginosa, UniProt Q932Y6); assay: BLA reporter interference, concentration series – BLA reporter cells, FRET fluorescence, artefact control for NOD2-RIPK2 interaction inhibitor project, dose response (AID 651552); assay type: functional, cell-based
Chain of Beta Lactamase (Q932Y6 whole entry): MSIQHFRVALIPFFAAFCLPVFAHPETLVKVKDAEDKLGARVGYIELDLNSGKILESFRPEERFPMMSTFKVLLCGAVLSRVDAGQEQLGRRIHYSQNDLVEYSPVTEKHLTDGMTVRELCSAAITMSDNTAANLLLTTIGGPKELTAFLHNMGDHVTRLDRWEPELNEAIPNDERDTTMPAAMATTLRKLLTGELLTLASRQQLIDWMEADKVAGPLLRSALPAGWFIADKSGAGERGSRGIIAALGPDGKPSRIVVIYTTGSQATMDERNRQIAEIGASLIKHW

[10] = biological target: T5, Mannose-6-phosphate isomerase (Homo sapiens, UniProt P34949); assay: phosphomannose isomerase inhibition – biochemical, fluorescence intensity, confirmation (AID 1535)
T5 sequence (P34949 whole entry): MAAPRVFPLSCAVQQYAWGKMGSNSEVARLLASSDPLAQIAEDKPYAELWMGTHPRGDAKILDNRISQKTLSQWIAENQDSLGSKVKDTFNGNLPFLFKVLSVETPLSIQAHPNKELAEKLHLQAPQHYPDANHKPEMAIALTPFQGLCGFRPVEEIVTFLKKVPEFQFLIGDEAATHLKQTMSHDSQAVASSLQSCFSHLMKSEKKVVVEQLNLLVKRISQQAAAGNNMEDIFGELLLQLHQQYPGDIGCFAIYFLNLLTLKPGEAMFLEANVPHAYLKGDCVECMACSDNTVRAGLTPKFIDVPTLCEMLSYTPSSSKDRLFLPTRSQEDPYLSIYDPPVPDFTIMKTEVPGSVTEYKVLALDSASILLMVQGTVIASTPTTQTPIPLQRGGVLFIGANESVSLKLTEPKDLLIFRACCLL

[11] = biological target: T6, Polyadenylate-binding protein 1 (Homo sapiens, UniProt P11940); assay: MLLE binding blockers, Cy5 peptide tracer – biochemical, fluorescence polarization, Cy5-PAM2 peptide, secondary, miRNA deadenylation inhibitor project, dose response (AID 602260); assay type: functional; conditions: read-out: IC50_Mean
T6 sequence (P11940 whole entry): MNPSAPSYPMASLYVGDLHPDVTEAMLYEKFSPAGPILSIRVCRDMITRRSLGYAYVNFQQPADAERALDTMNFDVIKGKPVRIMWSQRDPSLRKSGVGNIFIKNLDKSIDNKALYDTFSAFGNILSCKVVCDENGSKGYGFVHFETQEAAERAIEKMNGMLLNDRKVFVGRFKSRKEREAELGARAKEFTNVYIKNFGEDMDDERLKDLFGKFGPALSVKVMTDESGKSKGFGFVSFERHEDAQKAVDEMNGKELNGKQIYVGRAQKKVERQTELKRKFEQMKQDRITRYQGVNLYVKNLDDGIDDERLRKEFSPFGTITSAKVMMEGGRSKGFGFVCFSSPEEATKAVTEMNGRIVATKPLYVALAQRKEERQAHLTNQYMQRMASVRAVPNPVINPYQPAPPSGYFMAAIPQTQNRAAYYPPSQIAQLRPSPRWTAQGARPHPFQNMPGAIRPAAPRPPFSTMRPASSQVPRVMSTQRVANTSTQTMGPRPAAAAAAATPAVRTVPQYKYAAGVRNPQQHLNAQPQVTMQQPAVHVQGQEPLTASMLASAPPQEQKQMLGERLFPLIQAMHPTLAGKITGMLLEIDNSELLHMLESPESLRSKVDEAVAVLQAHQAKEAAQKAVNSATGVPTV

[12] = biological target: T7, Rac GTPase-activating protein 1 (Homo sapiens, UniProt Q9H0H5); assay: blockers of MgcRacGAP-driven Rac1 GTP hydrolysis – biochemical, ADP Hunter fluorescence, primary and confirmatory, confirmation (AID 624330); assay type: functional
T7 sequence (Q9H0H5 whole entry): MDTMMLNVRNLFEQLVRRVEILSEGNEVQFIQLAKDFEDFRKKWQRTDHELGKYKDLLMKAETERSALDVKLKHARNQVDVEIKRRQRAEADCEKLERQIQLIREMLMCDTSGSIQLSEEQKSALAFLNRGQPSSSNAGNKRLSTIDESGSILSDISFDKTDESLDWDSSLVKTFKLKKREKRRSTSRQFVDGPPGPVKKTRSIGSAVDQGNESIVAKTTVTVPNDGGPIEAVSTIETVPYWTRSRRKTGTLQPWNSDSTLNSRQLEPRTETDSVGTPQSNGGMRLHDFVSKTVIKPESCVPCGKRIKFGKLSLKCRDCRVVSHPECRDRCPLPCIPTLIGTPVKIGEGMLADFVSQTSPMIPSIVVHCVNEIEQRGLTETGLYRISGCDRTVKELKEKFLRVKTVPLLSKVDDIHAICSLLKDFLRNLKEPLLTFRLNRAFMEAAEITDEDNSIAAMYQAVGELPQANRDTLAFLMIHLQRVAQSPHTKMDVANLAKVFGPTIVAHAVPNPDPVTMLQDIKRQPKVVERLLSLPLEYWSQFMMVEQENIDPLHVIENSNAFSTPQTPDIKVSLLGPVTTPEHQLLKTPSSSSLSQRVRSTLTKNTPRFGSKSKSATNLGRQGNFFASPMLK

[13] = biological target: DNA dC->dU-editing enzyme APOBEC-3A (Homo sapiens, UniProt P31941); assay: A3A deaminase inhibition for selectivity – biochemical, dose response (AID 504722); assay type: functional
Chain of DNA dC->dU-editing enzyme APOBEC-3A (P31941 whole entry): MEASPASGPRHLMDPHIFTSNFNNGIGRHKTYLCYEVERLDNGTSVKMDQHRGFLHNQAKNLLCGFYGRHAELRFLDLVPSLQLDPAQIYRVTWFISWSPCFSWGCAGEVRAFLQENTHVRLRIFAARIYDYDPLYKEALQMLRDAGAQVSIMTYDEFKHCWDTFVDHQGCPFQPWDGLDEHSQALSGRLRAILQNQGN

[14] = biological target: Phosphoethanolamine/phosphocholine phosphatase (Homo sapiens, UniProt Q8TCT1); assay: SAR assay for compounds that inhibit PHOSPHO1. [Related pubchem assays (depositor defined):AID1545, AID1565, AID1574]
Chain of Phosphoethanolamine/phosphocholine phosphatase (Q8TCT1 whole entry, the tested form may be a part): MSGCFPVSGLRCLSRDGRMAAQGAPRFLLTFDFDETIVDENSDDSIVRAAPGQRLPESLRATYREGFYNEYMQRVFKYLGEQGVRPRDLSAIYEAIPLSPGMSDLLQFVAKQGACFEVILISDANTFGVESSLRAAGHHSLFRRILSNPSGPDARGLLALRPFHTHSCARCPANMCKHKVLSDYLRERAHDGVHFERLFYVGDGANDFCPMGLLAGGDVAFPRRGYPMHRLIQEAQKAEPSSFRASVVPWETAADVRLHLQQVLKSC

[15] = biological target: T6, Polyadenylate-binding protein 1; assay: MLLE domain peptide-binding blockers, IC50 – biochemical, fluorescence polarization, FITC-PAM2 peptide, dose response (AID 602259); assay type: functional; conditions: read-out: IC50_Mean
[16] = biological target: DNA dC->dU-editing enzyme APOBEC-3G (Homo sapiens, UniProt Q9HC16); assay: Dose Response confirmation of small molecule APOBEC3G DNA Deaminase Inhibitors via a fluorescence-based single-stranded DNA deaminase assay. [Related pubchem assays (depositor defined):AID493012, AID493028]; assay type: functional
Chain of DNA dC->dU-editing enzyme APOBEC-3G (Q9HC16 whole entry): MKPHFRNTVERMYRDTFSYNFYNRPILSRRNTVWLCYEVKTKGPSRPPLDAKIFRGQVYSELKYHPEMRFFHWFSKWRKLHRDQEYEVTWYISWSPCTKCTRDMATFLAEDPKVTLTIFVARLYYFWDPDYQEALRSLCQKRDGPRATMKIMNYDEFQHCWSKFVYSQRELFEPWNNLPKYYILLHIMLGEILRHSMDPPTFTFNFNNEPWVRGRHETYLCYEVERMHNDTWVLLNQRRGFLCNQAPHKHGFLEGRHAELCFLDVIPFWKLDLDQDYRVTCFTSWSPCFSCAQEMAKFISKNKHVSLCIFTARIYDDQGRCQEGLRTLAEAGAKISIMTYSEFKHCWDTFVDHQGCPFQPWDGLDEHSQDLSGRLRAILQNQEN

[17] = viability loss in HeLa cells – cytotoxicity control for MgcRacGAP inhibitor project, dose response (AID 624300); assay type: functional
[18] = Fluorescence-based cell-based high throughput dose response assay for inhibitors of the interaction of nucleotide-binding oligomerization domain containing 2 (NOD2) and the receptor-interacting serine-threonine kinase 2 (RIPK2).; assay type: functional; conditions: Homo sapiens
[19] = biological target: T2, Alkaline phosphatase, tissue-nonspecific isozyme; assay: potency against alkaline phosphatase TNAP – biochemical, luminescent, dose response, SAR follow-up (AID 1056)
[20] = biological target: Mitochondrial peptide methionine sulfoxide reductase (Bos taurus, UniProt P54149); assay: Absorbance-based biochemical high throughput dose response assay for activators of Methionine sulfoxide reductase A (MsrA).; assay type: functional
Chain of Mitochondrial peptide methionine sulfoxide reductase (P54149 whole entry): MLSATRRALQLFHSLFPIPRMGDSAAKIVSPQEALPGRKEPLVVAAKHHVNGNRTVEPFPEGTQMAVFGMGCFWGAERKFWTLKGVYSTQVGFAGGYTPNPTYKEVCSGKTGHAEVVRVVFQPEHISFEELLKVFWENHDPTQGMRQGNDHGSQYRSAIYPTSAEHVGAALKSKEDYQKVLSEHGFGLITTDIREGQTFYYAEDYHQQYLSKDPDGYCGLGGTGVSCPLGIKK

[21] = NIH-3T3 fibroblast cytotoxicity, dose response, cytotoxicity control, cell-based, fluorescence, Alamar Blue, secondary assay (AID 2327); assay type: functional;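 also: NIH-3T3 mouse fibroblasts cultured with fluconazole at 8 µg/mL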
[22] = system: BJ; assay: BJ-TERT-LT-ST fibroblast viability loss – cell-based, RAS-independent, luminescence, dose response (AID 1935); assay type: functional; conditions: Homo sapiens;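 also: BJ fibroblasts immortalized with TERT plus LT and ST oncogenes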
[23] = fluconazole-exposed Candida albicans growth modulators – fluorescence, retest, confirmation (AID 2467); assay type: functional, cell-based
[24] = system: BJ; assay: BJ-TERT fibroblast viability loss – cell-based, RAS-independent, luminescence, dose response (AID 1933); assay type: functional; conditions: Homo sapiens
[25] = Luminescence Cell-Based Dose Response HTS to Identify Inhibitors of 5'UTR Stem-Loop Driven Prion Protein mRNA Translation in H4 Neuroglioblastoma Cells. [Related pubchem assays: 1827 (Project Summary), 1813 (Primary HTS)]; assay type: functional
[26] = biological target: CAAX prenyl protease 2 (Saccharomyces cerevisiae S288c, UniProt Q03530); assay type: biochemical
Chain of CAAX prenyl protease 2 (Q03530 whole entry): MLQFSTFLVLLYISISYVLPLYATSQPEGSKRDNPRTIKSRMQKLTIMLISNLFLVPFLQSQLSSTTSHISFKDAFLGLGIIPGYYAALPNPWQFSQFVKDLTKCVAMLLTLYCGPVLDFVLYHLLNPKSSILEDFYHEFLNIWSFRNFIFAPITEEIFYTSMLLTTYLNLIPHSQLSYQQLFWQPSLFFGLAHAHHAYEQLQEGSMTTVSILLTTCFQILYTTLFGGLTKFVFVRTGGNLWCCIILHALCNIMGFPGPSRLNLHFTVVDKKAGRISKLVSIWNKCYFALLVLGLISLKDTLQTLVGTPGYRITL

[27] = luciferase reporter signal suppression in cells – H4 neuroglioma cells, luminescence, dose response (AID 1990); assay type: functional, cell-based
[28] = system: BJ; assay: cells; assay type: functional, cell-based; conditions: Homo sapiens
[29] = alpha-synuclein stem-loop luciferase translation blockers – H4 neuroglioma cells, luminescence, confirmation (AID 1988); assay type: functional, cell-based
[30] = DRD fibroblast viability loss – cell-based, non-viral oncogenic, luminescence, dose response (AID 1934); assay type: functional; conditions: Homo sapiens
[31] = system: INS1; assay: INS-1E survival protection against cytokine death – cell-based, luminescence, retest, dose response (AID 449756); assay type: functional; conditions: Rattus norvegicus;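 also: cell death triggered by IL-1 beta plus TNF-alpha plus IFN-gamma mixture; protective hits raise ATP signal compared with cytokine alone wells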

Chain of Alkaline phosphatase, placental type (P05187 whole entry): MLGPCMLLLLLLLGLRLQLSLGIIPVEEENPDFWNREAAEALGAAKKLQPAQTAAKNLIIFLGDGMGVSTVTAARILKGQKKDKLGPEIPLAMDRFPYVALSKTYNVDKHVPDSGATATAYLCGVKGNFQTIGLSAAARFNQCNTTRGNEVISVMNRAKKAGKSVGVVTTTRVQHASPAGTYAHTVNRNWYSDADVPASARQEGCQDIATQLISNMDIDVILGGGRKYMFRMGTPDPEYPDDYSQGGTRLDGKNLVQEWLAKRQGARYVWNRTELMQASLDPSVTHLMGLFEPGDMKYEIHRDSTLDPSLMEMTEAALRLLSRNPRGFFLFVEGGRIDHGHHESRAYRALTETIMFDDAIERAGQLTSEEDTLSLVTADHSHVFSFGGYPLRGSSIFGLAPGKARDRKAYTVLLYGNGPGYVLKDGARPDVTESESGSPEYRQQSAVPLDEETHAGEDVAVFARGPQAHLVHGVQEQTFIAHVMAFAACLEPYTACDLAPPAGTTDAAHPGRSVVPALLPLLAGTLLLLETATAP

Cc1ccc(NC(S)=NNC(=O)c2c(Cl)c(C)nn2C)cc1
inactive: IC50 [1] > 100 µM | IC50 [2] > 100 µM | IC50 [3] > 100 µM

CC1(C(=O)NNC(=O)c2ccc(=O)oc2)CC1Br (stereo unspecified)
active: IC50 [4] 11 µM
inactive: EC50 [5] > 100 µM | IC50 [6] > 100 µM

CC1=C(C(=O)NCc2ccccc2)C(c2cc(Br)cc(Br)c2OC(C)C)NC(=O)N1 (stereo unspecified)
active: EC50 [7] 4.22 µM

O=c1c2ccccc2sn1-c1ccc(F)cc1
inactive: IC50 [9] 29.5 µM | IC50 [11] > 66 µM | IC50 [13] > 100 µM | IC50 [14] 4.85 µM | IC50 [15] > 66 µM | IC50 [19] > 100 µM | EC50 [20] 98.5 µM
active: IC50 [8] 18.1 µM | IC50 [10] 1.49 µM | IC50 [12] 39.3 µM | IC50 [16] 12.4 µM | CC50 [17] 77.3 µM | IC50 [18] 5.1 µM

Cc1ccc(-c2cc(-c3ccccc3)cc(-c3ccccc3)[n+]2-c2ccccc2)cc1.[O-][Cl+3]([O-])([O-])[O-]
> 120 µM (not active): EC50 [25] | EC50 [27]
active: EC50 [21] 43.8 µM | EC50 [22] 4.96 µM | EC50 [23] 0.378 µM | EC50 [24] 4.34 µM | AC50 [26] 29.1 µM | EC50 [28] 7.64 µM | EC50 [29] 10.7 µM | EC50 [30] 6.7 µM | AC50 [31] 1.89 µM
